Entries after “also recorded” stand apart in the source; their conditions may differ.
Experiments:
Assay in all cases: Inorganic phosphate detection assay for phosphatase inhibition
Type in all cases: biochemical
guinea pig INPP5K = guinea pig INPP5K (Cavia porcellus, UniProt H0V8T7); conditions: 20 µM diC8-PI(3,4,5)P3, 20 min
Text: (§1) The protein purification is described in detail elsewhere. Briefly, full-length human INPP5K (amino acids 1–448, UniProt ID: Q9BT40), rat INPP5K (aa 1–446, UniProt ID: Q9R0B6), mouse INPP5K (aa 1–468, UniProt ID: Q8C5L6), hamster INPP5K (aa 1–453, UniProt ID: G3HTF6), guinea pig INPP5K (aa 1–473, UniProt ID: H0V8T7) containing an N-terminal FLAG-tag, full-length human SHIP2 (aa 1–1 258) containing a C-terminal FLAG-tag, and full-length human PIPP (amino acids 1–1 006) containing an N-terminal His8-tag were all cloned into the pcDNA3.4 expression vector and transiently expressed in Expi293 cells (Thermo Fisher Scientific). The PH domain of human TAPP1 (amino acids 180–404) containing an N-terminal GST-tag was expressed in a pGEX6P1 expression vector (GE Healthcare) in E. coli strain BL21 ((Merck KGaA, Darmstadt, Germany)), following IPTG induction at 37 °C for 5 h. All the FLAG-tagged INPP5Ks and hSHIP2 were purified using affinity columns containing DDDDK-tagged protein purification gel (MBL, Medical & Biological Laboratories Co., Ltd., Tokyo, Japan), followed by size-exclusion chromatography with Superdex 200 columns (GE Healthcare). His8-tagged hPIPP was purified using Ni–NTA Superflow (Qiagen) and Superdex 200 columns. The GST-tagged hTAPP1 domain was purified using a Glutathione Sepharose 4B (GE Healthcare) and Superdex 200 columns. The purity of the protein obtained was evaluated using SDS-PAGE.
(§2) The release of inorganic phosphate was measured using a PiPer Phosphate Assay Kit (Thermo Fisher Scientific), according to the manufacturer’s instructions, but with some modifications. Enzyme reactions were performed in a final volume of 10 µL per well in a 384-well nonbinding black plates (Greiner Bio-One International, GmbH, Kremsmünster, Austria). The reaction mixtures containing 20 µM diC8-PI(3,4,5)P₃ and each enzyme (human INPP5K, mouse INPP5K, rat INPP5K, hamster INPP5K, guinea pig INPP5K, human SHIP2, or human PIPP) in reaction buffer (50 mM Tris–HCl pH 7.0, 150 mM NaCl, 7.5 mM MgCl₂, 0.03% Igepal CA-630, 0.03% gelatin), with or without various concentrations of inhibitor, were incubated for 20 min at room temperature. The reactions were then stopped and detection reactions were initiated by adding 5 µL of detection mix 1 (60 mM EDTA, 12 U/mL maltose phosphorylase, and 0.6 mM maltose in 100 mM Tris–HCl pH 8.0). After incubation for 60 min at room temperature, 5 µL of detection mix 2 (8 U/mL glucose oxidase, 0.8 U/mL HRP, and 100 µM Amplex Red in 100 mM Tris–HCl pH 8.0) was added, and the mixture was incubated for a further 30 min at room temperature in the dark. The fluorescence generated was measured using an Envision plate reader at 531/590 nm (excitation/emission), and the percentage inhibition was calculated as described above.

hamster INPP5K = target: T1, hamster INPP5K (Cricetulus griseus, UniProt G3HTF6); conditions: 20 µM diC8-PI(3,4,5)P3, 20 min
T1 construct: hamster INPP5K (aa 1–453, UniProt ID: G3HTF6); FLAG (N); made in house; host or cells: Expi293 cells (pcDNA3.4, transient)
T1 sequence (G3HTF6 1-451): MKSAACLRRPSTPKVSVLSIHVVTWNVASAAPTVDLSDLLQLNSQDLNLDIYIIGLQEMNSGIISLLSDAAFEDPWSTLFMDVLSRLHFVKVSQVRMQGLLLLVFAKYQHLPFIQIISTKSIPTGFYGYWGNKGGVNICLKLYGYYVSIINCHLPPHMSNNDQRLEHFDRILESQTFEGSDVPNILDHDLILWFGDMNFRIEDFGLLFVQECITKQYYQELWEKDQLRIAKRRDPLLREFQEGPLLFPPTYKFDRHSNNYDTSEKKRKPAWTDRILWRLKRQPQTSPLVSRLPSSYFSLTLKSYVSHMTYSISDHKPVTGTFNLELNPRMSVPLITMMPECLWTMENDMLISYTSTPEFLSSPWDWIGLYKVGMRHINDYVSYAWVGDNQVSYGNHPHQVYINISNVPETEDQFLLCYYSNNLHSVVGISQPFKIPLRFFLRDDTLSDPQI
Text: as §1, §2

rat INPP5K = target: T2, rat INPP5K (Rattus norvegicus, UniProt A0A0G2K2Z2)
T2 construct: rat INPP5K (aa 1–446, UniProt ID: Q9R0B6); FLAG (N); made in house; host or cells: Expi293 cells (pcDNA3.4, transient)
T2 sequence (A0A0G2K2Z2 1-446): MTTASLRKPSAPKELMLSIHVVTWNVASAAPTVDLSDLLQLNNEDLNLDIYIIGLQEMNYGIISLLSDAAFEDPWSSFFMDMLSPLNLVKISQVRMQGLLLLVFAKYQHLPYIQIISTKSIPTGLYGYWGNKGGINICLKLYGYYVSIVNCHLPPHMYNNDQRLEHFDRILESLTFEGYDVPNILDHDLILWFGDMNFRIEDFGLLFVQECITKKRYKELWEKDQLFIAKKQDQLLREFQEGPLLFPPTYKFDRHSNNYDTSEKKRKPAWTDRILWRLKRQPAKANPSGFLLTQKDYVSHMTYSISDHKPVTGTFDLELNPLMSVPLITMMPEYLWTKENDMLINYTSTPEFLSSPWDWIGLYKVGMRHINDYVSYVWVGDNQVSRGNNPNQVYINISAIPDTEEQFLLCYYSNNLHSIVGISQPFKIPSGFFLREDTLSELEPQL
Text: as §1, §2

guinea pig INPP5K, sequence (H0V8T7 entry or part of it): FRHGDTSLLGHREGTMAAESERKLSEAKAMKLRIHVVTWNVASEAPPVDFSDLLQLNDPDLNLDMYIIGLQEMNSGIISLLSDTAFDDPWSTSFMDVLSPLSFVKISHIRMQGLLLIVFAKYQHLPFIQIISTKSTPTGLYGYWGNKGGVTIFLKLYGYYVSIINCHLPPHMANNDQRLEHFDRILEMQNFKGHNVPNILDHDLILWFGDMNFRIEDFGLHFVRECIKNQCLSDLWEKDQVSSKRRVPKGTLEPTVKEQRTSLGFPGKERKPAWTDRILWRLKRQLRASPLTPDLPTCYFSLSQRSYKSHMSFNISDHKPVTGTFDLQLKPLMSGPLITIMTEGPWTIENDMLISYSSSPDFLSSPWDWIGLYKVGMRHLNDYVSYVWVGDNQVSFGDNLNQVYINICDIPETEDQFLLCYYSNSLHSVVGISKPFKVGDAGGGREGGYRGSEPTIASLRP

CC(C)c1sc(NC(=O)c2ccccc2)c(C(=O)O)c1-c1ccccc1 [CPD-1]
IC50 (guinea pig INPP5K): 59 µM
IC50 (hamster INPP5K): 8.2 µM
IC50 (rat INPP5K; inorganic phosphate detection assay, 20 µM diC8-PI(3,4,5)P3, 20 min): > 100 µM
inhibition of rat INPP5K (in words) (rat INPP5K; result in words): no inhibition; also recorded: inactive
